Laboratory results published in EP4810040A2, “INHIBITORS OF APOL1 AND METHODS OF USING SAME” (priority 2020, dated 2022).

Target: T1, APOL1 G1 (Homo sapiens, UniProt O14791, I384M/S342G)
T1 sequence (O14791 28-398 S342G/I384M): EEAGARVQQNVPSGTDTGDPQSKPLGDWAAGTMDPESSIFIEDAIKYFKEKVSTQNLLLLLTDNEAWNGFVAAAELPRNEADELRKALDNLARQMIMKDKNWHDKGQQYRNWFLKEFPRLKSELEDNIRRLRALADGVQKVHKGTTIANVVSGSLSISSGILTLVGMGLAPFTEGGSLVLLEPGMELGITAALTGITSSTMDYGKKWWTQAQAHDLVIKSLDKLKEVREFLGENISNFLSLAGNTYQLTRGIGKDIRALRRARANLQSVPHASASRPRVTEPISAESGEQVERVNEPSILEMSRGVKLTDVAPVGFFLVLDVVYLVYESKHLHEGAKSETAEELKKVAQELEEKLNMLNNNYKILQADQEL
Experiment: MultiTox-Fluor Multiplex Cytotoxicity Assay, tet-inducible APOL1 G1 T-REx-HEK293 cells
Type: cell-based
Parameters: expressed in transfected cells; host or cells: T-REx HEK293, clone G1 DC3.25 (pAAVS1-Puro-APOL1 G1)
Details: for IC90: HEK293, Multi-Tox Assay, APOL1 variant (G0/G1/G2) of the HEK293 cells not given, read-out: Multi-Tox Assay IC90; for Emax / Multi-Tox Assay Max Activity (%): Multi-Tox Assay, APOL1 variant not given; for Emax: read-out: Multi-Tox Assay Max Activity (%)
Experimental: The MultiTox-Fluor Multiplex Cytotoxicity Assay is a single-reagent-addition, homogeneous, fluorescence assay that measures the number of live and dead cells simultaneously in culture wells. The assay measures cell viability and cytotoxicity by detecting two distinct protease activities. The live-cell protease activity is restricted to intact viable cells and is measured using a fluorogenic, cell-permeant peptide glycyl-phenylalanylamino fluorocoumarin (GF-AFC) substrate. The substrate enters intact cells, where it is cleaved to generate a fluorescent signal proportional to the number of living cells. […] A second, cell-impermeant, fluorogenic peptide substrate (bis-AAF-R110 Substrate) is used to measure dead-cell protease that has been released from cells that have lost membrane integrity. A ratio of dead to live cells is used to normalize data.
Briefly, the tet-inducible transgenic APOL1 T-REx-HEK293 cell lines were incubated with 50 ng/mL tet to induce APOL1 in the presence of 3-(2-(4-fluorophenyl)-1H-indol-3-yl)-N-((3S,4R)-4-hydroxy-2-oxopyrrolidin-3-yl)propenamide at […], 0.0045, 0.0015, 0.0005 µM in duplicate for 24 hours in a humidified 37°C incubator. The MultiTox reagent was added to each well and placed back in the incubator for an additional 30 minutes. The plate was read on the EnVision plate reader. A ratio of dead to live cells was used to normalize, and data was imported, analyzed and fit using Genedata Screener (Basel, Switzerland) software. Data was normalized using percent of control, no tet (100% viability), and 50 ng/mL tet treated (0% viability),and fit using Smart Fit. The reagents, methods, and complete protocol for the MultiTox assay are described below. Table 42. Reagents Used in the Multi-Tox Assay
Human embryonic kidney (HEK293) cell lines containing a tet-inducible expression system (T-REx™; Invitrogen, Carlsbad, CA) and Adeno-associated virus site 1 pAA VS1-Puro-APOL1 G0 or pAAVS1-Puro-APOL1 G1 or pAAVS1-Puro-APOL1 G2 Clones G0 DC2.13, G1 DC3.25, and G2 DC4.44 were grown in a T-225 flask at ~90% confluency in cell growth media (DMEM, 10% Tet-free FBS, 2 mM L-glutamine, 100 Units/mL penicillin-streptomycin, 5 µg/mL blasticidin S HCl, 1 µg/mL puromycin dihydrochloride). Cells were washed with DPBS and then trypsinized to dissociate from the flask. Media was used to quench the trypsin, cells were then pelleted at 200g and resuspended in fresh cell assay media (DMEM, 2% Tet-free FBS, 2 mM L-glutamine, 100 Units/mL penicillin-streptomycin). Cells were counted and diluted to 1.17 x 10^6 cells/mL. 20 µL of cells (23,400/well) were dispensed to every well of a 384-well Poly-D-Lysine coated plate using the Multidrop dispenser. The plates were then incubated at room temperature for one hour.
Tetracycline is needed to induce APOL1 expression. 1 mg/mL tet stock in water was diluted to 250 ng/mL (5X) in cell assay media. 60 µL of cell assay media (no tet control) was dispensed in columns 1 and 24, and 60 µL of 5X tet was dispensed in 384-PP-round bottom plate in columns 2 to 23 with the Multidrop dispenser.
Assay ready plates from the Global Compound Archive were ordered using template 384_APOL1Cell_DR10n2_50uM_v3. Compounds were dispensed at 200 nL in DMSO. The final top concentration was 10 µM with a 10 point 3-fold dilution in duplicate in the MultiTox assay.
20 µL were transferred from the 5X tet plate to the ARP and mixed, then 5 µL of 5X tet and the compounds were transferred to the cell plate and mixed using the Bravo. The cell plate was placed in the humidified 37°C 5% CO2 incubator for 24 hours.
The MultiTox-Fluor Multiplex Cytotoxicity Assay was performed in accordance with the manufacturer's protocol. […]

| SMILES | IC90 [nM] | Emax [%] | Multi-Tox Assay Max Activity (%) |
| --- | --- | --- | --- |
| C[C@H]1C[C@@]2(C[C@@H](c3ccnnc3)N1)OCCc1cc(Cl)sc12 (racemic) [Compound 93] | < 50 | 99.3 | – |
| C[C@H]1C[C@@]2(C[C@@H](c3cn(CCCO)nn3)N1)OCC(F)(F)c1cc(Cl)sc12 [Compound 359] | < 50 | – | 98.0 |
| C[C@H]1C[C@@]2(C[C@@H](c3cc(C4CC4)n[nH]3)N1)OCCc1cc(Cl)sc12 (racemic) [Compound 120] | 50 to 500 | – | – |
| Cc1noc(C)c1Cn1cc([C@@H]2C[C@]3(C[C@H](C)N2)OCC(F)(F)c2cc(Cl)sc23)nn1 [Compound 353] | < 50 | – | 100.0 |
| CC1CC2(CC(C3CC3(F)F)N1)OCCc1cc(Cl)sc12 (single isomer, unassigned) [Compound 212] | < 50 | 99 | – |
| COc1ccc([C@@H]2C[C@]3(C[C@H](C)N2)OCCc2cc(Cl)sc23)c(F)c1 (racemic) [Compound 44] | < 50 | – | 99.5 |
| C[C@H]1C[C@@]2(C[C@@H](c3cn(Cc4cccc5c4OCCO5)nn3)N1)OC[C@@H](O)c1cc(Cl)sc12 [Compound 268] | 50 to 500 | – | – |
| COC(=O)[C@@H]1C[C@]2(C[C@@H](C)N1)OCCc1cc(Cl)sc12 (stereo in doubt) [Compound 209, methyl (2'S,6'R,7S)-2-chloro-6'-methyl-spiro[4,5-dihydrothieno[2,3-c]pyran-7,4'-piperidine]-2'-carboxylate] | > 500 | 76.7 | – |
| CC(=O)Nc1ccc([C@@H]2C[C@]3(C[C@H](C)N2)OCCc2cc(Cl)sc23)cc1 (racemic) [Compound 50] | < 50 | – | 99.7 |
| CC(=O)Nc1ccc(C2CC3(CC(C)N2)OCCc2cc(Cl)sc23)cn1 (stereo not drawn) [Compound 37] | < 50 | 99.7 | – |
| C[C@H]1C[C@@]2(C[C@@H](c3cnn(C4CCOCC4)c3)N1)OCCc1cc(Cl)sc12 (racemic) [Compound 100] | < 50 | – | 99.3 |
| Cc1nc(Cn2cc([C@@H]3C[C@]4(C[C@H](C)N3)OC[C@@H](O)c3cc(Cl)sc34)nn2)oc1C [Compound 297] | 50 to 500 | – | – |
| Cc1nc[nH]c1[C@@H]1C[C@]2(C[C@H](C)N1)OCCc1cc(Cl)sc12 (racemic) [Compound 161] | > 500 | – | 92.4 |
| C[C@H]1C[C@@]2(C[C@@H](c3ccc(C(F)(F)F)nc3)N1)OCCc1cc(Cl)sc12 (racemic) [Compound 123] | 50 to 500 | – | 100.0 |
| COCC1(Cn2cc([C@@H]3C[C@]4(C[C@H](C)N3)OC[C@@H](O)c3cc(Cl)sc34)nn2)CC1 [Compound 270] | > 500 | – | 93.0 |
| Cc1cccnc1[C@@H]1C[C@]2(C[C@H](C)N1)OCCc1cc(Cl)sc12 (racemic) [Compound 167] | > 500 | – | 89.7 |
| C[C@H]1C[C@@]2(C[C@@H](c3cn(CC(F)F)nn3)N1)OC[C@@H](O)c1cc(Cl)sc12 [Compound 283] | 50 to 500 | – | 101.0 |
| C[C@H]1C[C@@]2(C[C@@H](c3n[nH]c4ccccc34)N1)OCCc1cc(Cl)sc12 (racemic) [Compound 169] | > 500 | – | 86.8 |
| Cc1nnc(Cn2cc([C@@H]3C[C@]4(C[C@H](C)N3)OC[C@@H](O)c3cc(Cl)sc34)nn2)[nH]1 [Compound 272] | > 500 | – | 95.0 |
| CNC(=O)c1ccc(C2CC3(CC(C)N2)OCCc2cc(Cl)sc23)cc1 (stereo not drawn) [Compound 41] | < 50 | – | 99.7 |
| C[C@H]1C[C@@]2(C[C@@H](c3cn(C)nn3)N1)OCCc1cc(Cl)sc12 [Compound 1, (2'S, 6'S, 7S)-2-chloro-2'-methyl-6'-(1-methyltriazol-4-yl)spiro[4,5-dihydrothieno[2,3-c]pyran-7,4'-piperidine]] | < 50 | 99.3 | – |
